Data reported in CN112516145A, “小分子化合物wk369在制备治疗卵巢癌药物中的应用” (East China Normal University, priority 2019, dated 2021).

What was measured:
[1] = tested on: patients with platinum-sensitive recurrent ovarian cancer (铂敏感的复发型卵巢癌患者); settings: clinical phase II and III; cited from earlier work
[2] = tested on: SKOV3 cells; test: Scratch lateral migration assay, SKOV3; assay type: cell-based, human; settings: 1, 5, 10 μM, about 12 h
[3] = tested on: BCL6 transcriptional repression activity (BCL6的转录抑制活性); test: Luciferase reporter gene assay of BCL6 transcriptional repression (293T cells); assay type: cell-based; settings: 24 h
[4] = tested on: SKOV3 tumor (SKOV3肿瘤); test: SKOV3 subcutaneous xenograft in nude mice, tumor growth; assay type: in vivo, human SKOV3 cells in nude mouse; settings: intraperitoneal once daily, about 21 days
[5] = tested on: CyclinB1, cdc25C, CyclinD1; test: Cell cycle regulatory proteins by electrophoresis (blot), ES-2; assay type: cell-based, human
[6] = tested on: ATR; test: qRT-PCR of BCL6 downstream gene ATR in ovarian cancer cells; assay type: cell-based; settings: ES-2, H08910PM, SKOV3, 24 h
[7] = biological target: T1, BCL6-SMRT interaction (BCL6片段蛋白与多肽SMRT的相互作用) (Homo sapiens, UniProt P41182); test: HTRF assay of inhibition of BCL6 fragment protein - SMRT polypeptide interaction; assay type: biochemical
T1 construct: 本发明所需BCL6蛋白N端的BTB/POZ结构域序列为; made in house

[8] = tested on: ES-2 cells; test: Scratch lateral migration assay, ES-2; assay type: cell-based, human; settings: 1, 5, 10 μM, about 12 h
[9] = tested on: ES-2 cells; test: ES-2-luc ovarian cancer intraperitoneal metastasis mouse model; assay type: in vivo, human ES-2 cells in mouse; settings: 50mg/kg
[10] = tested on: BCL6-low-expressing ovarian cancer cell line IGROV-1 (BCL6低表达卵巢癌细胞株); test: SRB proliferation assay, BCL6-low ovarian cancer cell line; assay type: cell-based, human
[11] = Behaviour and adverse reactions in ES-2 intraperitoneal metastasis mice; settings: 50mg/kg, continuous dosing, 30 days
[12] = tested on: CyclinB1, cdc25C, CyclinD1; test: Cell cycle regulatory proteins by electrophoresis (blot), SKOV3; assay type: cell-based, human
[13] = tested on: PARP; test: PARP protein by electrophoresis (blot), SKOV3; assay type: cell-based, human
[14] = tested on: PARP; test: PARP protein by electrophoresis (blot), ES-2; assay type: cell-based, human
[15] = tested on: Ki67; test: Immunohistochemistry of Ki67 in SKOV3 xenograft; assay type: in vivo, human SKOV3 cells in nude mouse
[16] = Body weight, behaviour and organ HE staining in SKOV3 xenograft mice
[17] = tested on: ES-2 cells; test: Cell cycle by flow cytometry, ES-2; assay type: cell-based, human; settings: ES-2, 24 h
[18] = tested on: BCL6-high-expressing ovarian cancer cells ES-2, SKOV3, H08910PM, MCAS, CAOV3, OVCAR8 (BCL6高表达卵巢癌细胞); test: Colony formation assay; assay type: cell-based, human
[19] = tested on: mouse germinal center formation (小鼠生发中心的形成); test: Mouse germinal center formation model; assay type: in vivo; settings: 50mg/kg/d, intraperitoneal, 12 days
[20] = tested on: P53; test: qRT-PCR of BCL6 downstream gene P53 in ovarian cancer cells; assay type: cell-based; settings: ES-2, H08910PM, SKOV3, 24 h
[21] = tested on: ES-2 cells; test: Transwell invasion assay, ES-2; assay type: cell-based, human
[22] = tested on: BCL6 downstream genes ATR, P53, CDKN1A (BCL6下游基因); test: qPCR of BCL6 downstream genes in SKOV3 xenograft; assay type: in vivo, human SKOV3 cells in nude mouse
[23] = mouse, in vivo
[24] = tested on: ES-2 cells; test: Apoptosis by AnnexinV/PI flow cytometry, ES-2; assay type: cell-based, human; settings: ES-2, 48 h
[25] = tested on: SKOV3 cells; test: Apoptosis by AnnexinV/PI flow cytometry, SKOV3; assay type: cell-based, human; settings: SKOV3, 48 h
[26] = tested on: normal cell lines HAF, L02, NCM460, 293T, PNT1A (正常细胞株); test: SRB proliferation assay, normal cell lines; assay type: cell-based, human; settings: Fig. 4(C)
[27] = tested on: SKOV3 cells; test: Transwell invasion assay, SKOV3; assay type: cell-based, human
[28] = tested on: CDKN1A; test: qRT-PCR of BCL6 downstream gene CDKN1A in ovarian cancer cells; assay type: cell-based; settings: ES-2, H08910PM, SKOV3, 24 h
[29] = tested on: SKOV3 cells; test: Cell cycle by flow cytometry, SKOV3; assay type: cell-based, human; settings: SKOV3, 24 h
[30] = animal level; cited from earlier work
[31] = biological target: T2, BCL6 (Homo sapiens, UniProt P41182); settings: cited from earlier work
[32] = biological target: T2, BCL6; settings: greater than 50 or even 200; cited from earlier work

## O=C(c1cc(Cc2n[nH]c(=O)c3ccccc23)ccc1F)N1CCN(C(=O)C2CC2)CC1 [奥卡帕尼]
[1]
  overall survival (OS): 并不能延长

## C[C@@H]1CN(c2ncc(F)c(Nc3ccc4oc(=O)ccc4c3)n2)C[C@H](C)N1 [WK369]
[2]
  inhibition of migration: 浓度依赖性地抑制
[3]; 20 μM
  BCL6 transcriptional repression activity at 20 μM: 完全消除
[3]; concentration series, compared with positive compound
  inhibition of BCL6 transcriptional repression activity: 浓度依赖性抑制BCL6的转录抑制活性,效果显著优于阳性化合物
[4]; 25mg/kg
  inhibition of tumor growth compared with FX1 (50mg/kg): 显著优于阳性化合物FX1
[4]; 50mg/kg vs 25mg/kg
  inhibition of tumor growth, 50mg/kg compared with 25mg/kg: 效果显著优于本发明化合物WK36925mg/kg的给药剂量
[4]; 50mg/kg
  tumor proliferation: 肿瘤增殖非常缓慢
[4]; 25 and 50mg/kg
  inhibition of tumor growth: 有效抑制肿瘤的生长
[5]
  CyclinB1 expression: 显著下调
  CyclinD1 expression: 显著下调
  cdc25C expression: 显著下调
[6]; 1, 5, 10, 20 μM
  upregulation of ATR expression: 几倍至十几倍
[6]; FX1 20 μM
  upregulation of ATR expression compared with FX1: 更为显著地上调
[7]; 6His-SMRT 200 nM, BCL6-GST 6.25 nM, room temperature overnight, read-out: half-maximal inhibitory concentration (IC50)
  IC50: 0.315 µM
[7]; WK369 versus positive compound FX1
  fold improvement over FX1 in inhibiting BCL6 fragment protein - SMRT interaction: ~120 fold
[8]
  inhibition of migration: 浓度依赖性地抑制
[9]
  survival rate of mice: 有效提高
[9]; 30 days
  intraperitoneal spread and metastasis: 有效抑制
  tumor growth (bioluminescence): 显著降低
[9]; 30 days, compared with control group
  number of tumor nodules on the surface of abdominal organs (liver, spleen, kidney, intestine, ovary): 明显减少
[10]; BCL6-low-expressing ovarian cancer cells (IGROV-1), 72 h, read-out: half-maximal proliferation inhibition activity
  IC50: ~16 µM
[10]; Fig. 4(D)
  difference in half-maximal proliferation inhibition activity between BCL6-high and BCL6-low ovarian cancer cell lines: 具有显著性差异
[11]
  toxicity: 没有明显毒性
[12]
  CyclinB1 expression: 显著下调
  CyclinD1 expression: 显著下调
  cdc25C expression: 显著下调
[13]
  full-length PARP protein: 显著下调
  truncated PARP protein: 上调
[14]
  full-length PARP protein: 显著下调
  truncated PARP protein: 上调
[15]
  expression of tumor proliferation marker Ki67: 显著降低
[16]
  toxicity to major organs (heart, liver, spleen, lung, kidney), HE staining: 没有明显毒性
[17]
  cell cycle arrest at G2M phase: 浓度依赖性地诱导
[18]; BCL6-high-expressing lines
  inhibition of colony formation compared with FX1: 显著优于阳性化合物FX1
[18]; BCL6-high-expressing lines, one week
  inhibition of colony formation: 很显著的抑制效果
[18]; compared with BCL6-low-expressing line
  inhibition of colony formation, BCL6-high compared with BCL6-low ovarian cancer cell lines: 对BCL6高表达卵巢癌细胞株的抑制效果更为明显
[19]
  decrease in germinal center B cell proportion compared with positive compound: 下降比例更为显著
  inhibition of mouse germinal center formation: 均能抑制小鼠生发中心的形成
[20]; 1, 5, 10, 20 μM
  upregulation of P53 expression: 几倍至十几倍
[20]; FX1 20 μM
  upregulation of P53 expression compared with FX1: 更为显著地上调
[21]; ES-2, 1 μM, 12-24 h
  number of invading cells: 已显著减少
[21]; ES-2, 10 μM, 12-24 h
  cells that invade: 只有极少数的细胞发生侵袭
[21]; ES-2, high concentration (FX1 10 μM), WK369 1, 5, 10 μM
  inhibition of invasion: 显著抑制
[22]
  upregulation of BCL6 downstream genes in vivo compared with positive compound: 更好地上调
[23]
  abnormal behaviour and adverse reactions: 并未发现小鼠异常行为和不良反应
  body weight change compared with blank control: 没有明显变化
[24]
  induction of apoptosis compared with positive compound: 更显著地诱导
[25]
  induction of apoptosis compared with positive compound: 更显著地诱导
[26]
  difference in half-maximal proliferation inhibition activity between human ovarian cancer and human normal cell lines: 具有显著性差异
[27]; SKOV3, 1 μM, 12-24 h
  number of invading cells: 已显著减少
[27]; SKOV3, 10 μM, 12-24 h
  cells that invade: 只有极少数的细胞发生侵袭
[27]; SKOV3, high concentration (FX1 10 μM), WK369 1, 5, 10 μM
  inhibition of invasion: 显著抑制
[28]; 1, 5, 10, 20 μM, highest
  upregulation of CDKN1A expression: 最高可上调几十倍
[28]; FX1 20 μM
  upregulation of CDKN1A expression compared with FX1: 更为显著地上调
[29]
  cell cycle arrest at G2M phase: 浓度依赖性地诱导

## CNC(=O)COc1cc2cc(Nc3nc(N4C[C@H](C)C[C@H](C)C4)ncc3Cl)ccc2n(C)c1=O [BI3802]
[30]
  absorption: 很难被吸收
[31]
  biological activity at animal level: 生物活性差

## O=C(O)CC(C(=O)O)N1C(=O)C(=C2C(=O)Nc3ccc(Br)cc32)SC1=S (stereo not shown) [79-6]
[32]
  concentration exerting function at molecular and cellular level: > 50 µM
